Test results: patent US20200101176A1, “Small Highly Uniform Nanomedicine Compositions for Therapeutic, Imaging and Theranostic Applications” (THE REGENTS OF THE UNIVERSITY OF MICHIGAN, priority 2018, published 2020)

System: myocytes
Assay: PDT of heart tissue, cell death tracked by PI fluorescence
Details: in vivo
From the text: PI fluorescence is only from myocytes.
FIG. 25 are images showing an embodiment of a non-targeted PDT with Ce6, in accordance with the present inventions.
Turning to FIG. 15, there is shown that PI (a nuclear stain for dead cells) is only present in myocytes (3 different magnified areas).
Turning to FIG. 16, there is shown similar tissue sampling test as FIG. 15, but using non-targeted PDT.

## chlorin e6 [Ce6]
  damage to vasculature / non-target cells after PDT (PI fluorescence): vasculature damage
Listed as untargeted Ce6
  damage to vasculature / non-target cells after PDT (PI fluorescence): kills everything
